Results on five compounds are retold here after BindingDB's records for doi:10.1002/cbic.200300842 (University of Georgia, 2004).

“And” between values parts separate entries of the source, which are not always exact repeats. Equal values may be shown once.

This test concerns the target T1, Alpha-mannosidase 2 (Homo sapiens, UniProt Q16706).
T1 sequence (Q16706 whole entry): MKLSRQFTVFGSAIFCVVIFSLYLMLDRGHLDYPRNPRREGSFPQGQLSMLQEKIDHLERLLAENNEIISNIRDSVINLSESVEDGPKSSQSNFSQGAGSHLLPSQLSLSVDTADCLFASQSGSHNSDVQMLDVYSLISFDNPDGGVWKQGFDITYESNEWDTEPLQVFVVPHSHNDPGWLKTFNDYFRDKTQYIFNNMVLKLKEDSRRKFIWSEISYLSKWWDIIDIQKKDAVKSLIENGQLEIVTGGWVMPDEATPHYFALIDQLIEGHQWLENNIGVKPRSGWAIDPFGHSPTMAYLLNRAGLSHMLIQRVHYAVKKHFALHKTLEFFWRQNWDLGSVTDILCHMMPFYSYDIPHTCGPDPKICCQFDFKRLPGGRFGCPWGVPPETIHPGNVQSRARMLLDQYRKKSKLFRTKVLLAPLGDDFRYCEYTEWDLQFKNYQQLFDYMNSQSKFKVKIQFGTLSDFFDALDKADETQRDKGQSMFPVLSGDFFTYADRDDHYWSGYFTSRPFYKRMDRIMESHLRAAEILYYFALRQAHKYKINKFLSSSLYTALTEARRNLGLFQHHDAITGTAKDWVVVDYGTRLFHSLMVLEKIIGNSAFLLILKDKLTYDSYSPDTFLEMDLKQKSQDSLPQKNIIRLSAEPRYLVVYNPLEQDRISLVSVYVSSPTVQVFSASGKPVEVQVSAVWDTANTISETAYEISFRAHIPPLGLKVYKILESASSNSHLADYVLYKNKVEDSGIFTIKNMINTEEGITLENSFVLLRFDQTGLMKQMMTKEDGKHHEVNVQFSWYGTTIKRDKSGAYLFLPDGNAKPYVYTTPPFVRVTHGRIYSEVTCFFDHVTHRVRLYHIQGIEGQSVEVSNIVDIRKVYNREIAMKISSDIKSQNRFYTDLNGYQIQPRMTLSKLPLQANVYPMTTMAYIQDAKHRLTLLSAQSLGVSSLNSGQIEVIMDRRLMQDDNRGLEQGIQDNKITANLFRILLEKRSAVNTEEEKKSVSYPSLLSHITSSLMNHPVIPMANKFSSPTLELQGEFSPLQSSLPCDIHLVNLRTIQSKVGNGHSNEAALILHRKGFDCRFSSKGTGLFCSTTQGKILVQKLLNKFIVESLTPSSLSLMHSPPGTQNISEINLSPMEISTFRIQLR
The settings on record: pH 5.6; 37 °C.
In the case of `CS[C@H]1[C@H](O)[C@H](O)[C@H](O)[C@@H]1NCc1ccc(Cl)cc1` [Benzylation of mannostatin A, 1d], the Ki is 910 nM and 100 nM. With `COc1ccc(CN[C@H]2[C@@H](O)[C@@H](O)[C@@H](O)[C@@H]2SC)cc1` [Benzylation of mannostatin A, 1f] the figure was 520 nM and 100 nM. With `CS[C@H]1[C@H](O)[C@H](O)[C@H](O)[C@@H]1NCc1ccc(F)cc1` [Benzylation of mannostatin A, 1c], the Ki was 530 nM and 170 nM. With `CS[C@@H]1[C@@H](N)[C@@H](O)[C@@H](O)[C@H]1O` [Mannostatin A, 1] the figure was 210 nM and 90 nM. With `N[C@H]1[C@@H](O)[C@@H](O)[C@@H](O)[C@H]1O` [Mannostatin analogue, 4b] the figure was 50000 nM and 6600 nM.

The Ki is a measure of affinity in units of concentration, obtained from inhibition or displacement.
